Measured values as given in ChEMBL document CHEMBL3132781, “Biologically active binaphthol-scaffolded imidazolium salts” (Medchemcomm, 2014).
The source made the active and inactive calls. The calls are words filed in the database; no cut-off is given here.

Legend:
[1] = Induction of chloride efflux in egg yolk phosphatidylcholine large unilamellar vesicles assessed as increase of lucigenin's fluorescence relative to EYPC; type: physicochemical
Listeria seeligeri = experiment: Antibacterial activity against Listeria seeligeri ATCC 35967 assessed as complete inhibition of bacterial growth measured upto 24 hrs by broth dilution assay; type: functional; conditions: ATCC 35967, 24 h
Bacillus thuringiensis = experiment: Antibacterial activity against Bacillus thuringiensis HD73 assessed as complete inhibition of bacterial growth measured upto 24 hrs by broth dilution assay; type: functional; conditions: HD73, 24 h
Alcaligenes faecalis = experiment: Antibacterial activity against Alcaligenes faecalis ATCC 8750 assessed as complete inhibition of bacterial growth measured upto 24 hrs by broth dilution assay; type: functional; conditions: ATCC 8750, 24 h
Escherichia coli [2] = experiment: Antibacterial activity against Escherichia coli DH5[alpha] assessed as complete inhibition of bacterial growth measured upto 24 hrs by broth dilution assay; type: functional
Escherichia coli [3] = experiment: Antibacterial activity against Escherichia coli SK037 with Tn10 insertion inactivated TolC measured at 5 to 10 fold lower MIC within 2 hrs by broth dilution assay; type: functional, organism-based
[4] = Hemolysis in human erythrocytes at 3 to 4 uM after 24 hrs; type: ADME, cell-based, Erythrocyte; conditions: read-out: Activity
[5] = Hemolysis in human erythrocytes upto 100 uM after 1 hr; type: ADME, cell-based, Erythrocyte; conditions: read-out: Activity
[6] = Induction of chloride efflux in egg yolk phosphatidylcholine large unilamellar vesicles assessed as increase of lucigenin's fluorescence at 6.25 %mol relative to EYPC; type: physicochemical
Escherichia coli [7] = experiment: Antibacterial activity against Escherichia coli DH5[alpha] at 10 uM measured upto 24 hrs by broth dilution assay; type: functional, organism-based
Escherichia coli [8] = experiment: Antibacterial activity against Escherichia coli DH5[alpha] at 50 uM measured upto 24 hrs by broth dilution assay; type: functional, organism-based
Escherichia coli [9] = experiment: Antibacterial activity against Escherichia coli SK037 with Tn10 insertion inactivated TolC at 10 uM measured upto 24 hrs by broth dilution assay; type: functional, organism-based
Escherichia coli [10] = experiment: Antibacterial activity against Escherichia coli SK037 with Tn10 insertion inactivated TolC at 50 uM measured upto 24 hrs by broth dilution assay; type: functional, organism-based
HEK-293T = experiment: Cytotoxicity against human HEK293T cells after 24 hrs by MTT assay; type: cell-based

| SMILES | EC50 [1] | MIC (Listeria seeligeri) [µM] | MIC (Bacillus thuringiensis) [µM] | MIC (Alcaligenes faecalis) [µM] | MIC (Escherichia coli [2]) [µM] | Activity (Escherichia coli [3]) | hemolysis at 24 h, up to 4 µM [4] [%] | hemolysis at 1 h [5] [%] | Activity [6] [%] | Activity (Escherichia coli [7]) | Activity (Escherichia coli [8]) | Activity (Escherichia coli [9]) | Activity (Escherichia coli [10]) | IC50 (HEK-293T) [µM] |
| --- | --- | --- | --- | --- | --- | --- | --- | --- | --- | --- | --- | --- | --- | --- |
| C[n+]1ccn(Cc2cc3ccccc3c(-c3c(O)c(Cn4cc[n+](C)c4)cc4ccccc34)c2O)c1.O=S(=O)([N-]S(=O)(=O)C(F)(F)F)C(F)(F)F.O=S(=O)([N-]S(=O)(=O)C(F)(F)F)C(F)(F)F | Not Active | > 100 | > 100 | > 100 | > 100 |  |  |  |  |  |  |  |  |  |
| CCCCCCCCCCCCCCCC[n+]1ccn(Cc2cc3ccccc3c(-c3c(O)c(Cn4cc[n+](CCCCCCCCCCCCCCCC)c4)cc4ccccc34)c2O)c1.O=S(=O)([N-]S(=O)(=O)C(F)(F)F)C(F)(F)F.O=S(=O)([N-]S(=O)(=O)C(F)(F)F)C(F)(F)F | 18.1 %molar | > 100 | > 100 | > 100 | > 100 |  |  |  |  |  |  |  |  |  |
| CCCCCCCC[n+]1ccn(Cc2cc3ccccc3c(-c3c(O)c(Cn4cc[n+](CCCCCCCC)c4)cc4ccccc34)c2O)c1.O=S(=O)([N-]S(=O)(=O)C(F)(F)F)C(F)(F)F.O=S(=O)([N-]S(=O)(=O)C(F)(F)F)C(F)(F)F | 4.62 %molar | 3 | 4 | > 100 | > 100 | Active | < 15 | < 10 | 68 | inactive | inactive | Active | Active | 11.7 |
| CCCC[n+]1ccn(Cc2cc3ccccc3c(-c3c(O)c(Cn4cc[n+](CCCC)c4)cc4ccccc34)c2O)c1.O=S(=O)([N-]S(=O)(=O)C(F)(F)F)C(F)(F)F.O=S(=O)([N-]S(=O)(=O)C(F)(F)F)C(F)(F)F | Not Active | 30 | > 100 | > 100 | > 100 |  |  | < 10 |  | inactive | inactive |  |  | 23.8 |
| CCCCCCCCCCCC[n+]1ccn(Cc2cc3ccccc3c(-c3c(O)c(Cn4cc[n+](CCCCCCCCCCCC)c4)cc4ccccc34)c2O)c1.O=S(=O)([N-]S(=O)(=O)C(F)(F)F)C(F)(F)F.O=S(=O)([N-]S(=O)(=O)C(F)(F)F)C(F)(F)F | 9.3 %molar | 25 | 100 | > 100 | > 100 |  |  | < 10 |  |  |  |  |  | 9.2 |
